Data taken from publication PMC9031226, “Preclinical Therapeutic Assessment of a New Chemotherapeutics [Dichloro(4,4’-Bis(2,2,3,3-Tetrafluoropropoxy) Methyl)-2,2’-Bipryridine) Platinum] in an Orthotopic Patient-Derived Xenograft Model of Triple-Negative Breast Cancers” (Pharmaceutics, 2022).

How the values were obtained:
MDA-MB-231 cells [1] = assay: Cell cycle analysis (PI staining, flow cytometry); type: cell-based, human; details: 24 h; for DNA content in S phase: without exposure 14.75%; for DNA content in sub G1: without exposure 8.71%
Experimental: The pellet was collected and fixed in 99% ice-cold ethanol and then stored in a freezer at −20 °C for further processing of staining. To label DNA, those fixed cells were rapidly washed to remove the residual fixing agent, followed by staining with DNA intercalating agent propidium iodide solution (PI) for 30 min in the dark. The PI working solution contains 0.5% Triton X-100, 15 μg propidium iodide (PI; BioVision Inc., Milpitas, CA, USA) and 10 μg RNase A (Thermo Fisher Scientific Inc., Waltham, MA, USA) in 1 mL PBS. The measurement and acquisition of DNA content were conducted using FACSVerse^TM Flow Cytometer (BD, Franklin Lakes, NJ, USA). Cell cycle distribution in four phases (subG1, G1, S, G2/M) was gated and analyzed in Kaluza Analysis Software (Beckman Coulter Inc., Indianapolis, IN, USA).

[2] = PDX model: body and organ weight, CBC and blood biochemistry; type: in vivo; details: NSG mice
Source text: The procedures for the establishment of breast cancer-bearing xenograft models were modified from previous publications and approved by the Taipei Medical University (TMU) Institutional Animal Care and Use Committee (IACUC No. LAC- 2021-0546) and the Joint Institutional Review Board of Taipei Medical University (N201812005). Overall, 4- to 6-week-old NOD.Cg-PrkdcscidIl2rgtm1Wjl/SzJ (NSG) female mice purchased from BioLASCO Taiwan Co., Ltd. (Taipei, Taiwan) were housed in specific pathogen-free rooms with ad libitum feeding and 12 h light–dark cycle. Patient-derived TNBC tumors were microscopically considered for a hypervascular background and frequent mitosis features, and triple-negative results for estrogen receptor, progesterone receptor and human epidermal growth factor receptor 2 (HER2). After a week of acclimatization, patient-derived TNBC tumors dissected into 3 × 3 × 3 mm^3 were implanted using puncture needle in fat pads between the third and fourth mammary glands for each mouse. […] Tumor growth curves were generated by measuring tumor diameters and then calculating based on the same equation described above. Finally, the mice were sacrificed on day 23 after the first dose of treatments. Plasma, tumors and major organs (heart, liver, kidney, spleen and lung) were collected for toxicity assessment and metastasis evaluation. Whole blood harvested from sacrificed animals was collected in EDTA-containing or heparin-containing tubes for CBC and biochemical analysis. For biochemical analysis, whole blood was centrifuged under 2000× g for 5 min to separate plasma from blood cells and then plasma was kept and stored in a −20 °C fridge until further analysis. Concentrations of albumin, total protein, aspartate aminotransferase (AST), alanine aminotransferase (ALT) and creatinine (CREA) in plasma, numbers of red blood cells (RBC), platelets (PLT), white blood cells (WBC) and hemoglobin (HGB) concentration in EDTA-anticoagulated whole blood were determined by medical laboratory scientists in Taipei Medical University Hospital (Taipei, Taiwan).

MDA-MB-231 = assay: Western blotting of apoptosis and autophagy markers; type: cell-based, human; details: MDA-MB-231, Western blotting
Experimental: Each sample containing 30 μg protein mixture was loaded into a well on SDS-PAGE gel and separated through electrophoresis, followed by protein determination using specific antibodies against PARP (1:1000, Cat. #9542; Cell Signaling Technology, Danvers, MA, USA), GAPDH (1:5000, Cat. GTX100118; GeneTex, Irvine, CA, USA), Bax (1:1000, Cat. ARG65612; Arigo, Glasgow, UK), Bcl-2 (1:1000, Cat. ARG55188; Arigo, Glasgow, UK) and LC3-I/II (1:1000, Cat. #12741; Cell Signaling Technology, Danvers, MA, USA). Primary antibodies were targeted by horseradish peroxidase (HRP) conjugated anti-mouse (1:5000, Cat. A9044, Sigma-Aldrich, Burlington, VT, USA) or anti-rabbit (1:5000, Cat. SI-A0545; Sigma-Aldrich, Burlington, VT, USA) secondary antibodies for visualizing immunoblots. Results were imaged by ChemiDoc system (Bio-Rad Laboratories, Hercules, CA, USA) and semi-quantification was conducted using Image Lab system (Bio-Rad Laboratories, Hercules, CA, USA).

MDA-MB-231 cells [3] = assay: Cell line-derived xenograft (CDX) model, tumor growth; type: in vivo; details: NSG mice
Experimental: The procedures for the establishment of breast cancer-bearing xenograft models were modified from a previous publication and approved by the Taipei Medical University (TMU) Institutional Animal Care and Use Committee (IACUC No. LAC-2020-0175). Overall, 4- to 6-week-old NOD.Cg-PrkdcscidIl2rgtm1Wjl/SzJ (NSG) female mice purchased from National Laboratory Animal Center (Taipei, Taiwan) were housed in specific pathogen-free rooms with ad libitum feeding and 12 h light–dark cycle. After a week of acclimatization, 2 × 10^6 MDA-MB-231 cells suspended in 1:1 ratio of phosphate-buffered saline plus Matrigel® Matrix (Cat. 356237; Corning Inc., New York, NY, USA) were subcutaneously injected on the right flank of each mouse. […] To monitor tumor growth in the models, tumor diameter was measured using an electronic caliper and values were applied on the equation: width^2 × length × 0.52 to estimate their tumor volume. All mice were sacrificed on day 28 after treatment. Plasma, tumors and major organs (heart, liver, kidney, spleen and lung) were collected for toxicity assessment and metastasis evaluation.

STAT3-DN plasmid = assay: Gel-based electrophoretic mobility shift assay; type: binding; details: 24 h, 37 °C
Experimental: Plasmid DNA interacting with platinum-containing compounds was studied using agarose gel electrophoresis to separate DNA fragments dependent on sizes and structures. In total, […] of STAT3-DN plasmid (BIOTOOLS Co., New Taipei City, Taiwan) around 4.8 kb provided by Dr. Chien-Huang Lin was incubated with an equal volume of increasing concentrations of compounds (5~40 µM) at 37 °C for 24 h.

[4] = 2.11 mg/kg i.v. weekly x4, day 23
[5] = 5 mg/kg i.v. weekly x4, day 23, reference interval 0.2–0.5
[6] = 5 mg/kg i.v. weekly x4, day 23, reference interval 13–39
[7] = 5 mg/kg i.v. weekly x4, day 23, reference interval 63–227
[8] = 5 mg/kg i.v. weekly x4, day 23, reference interval 853–1951
[9] = 5 mg/kg i.v. weekly x4, day of sacrifice (day 23)
[10] = 5 mg/kg i.p. weekly x4, day 28, PBS 1412.72 ± 120.85

SMILES	Kidney ([2]; 5 mg/kg i.v. weekly x4, day 23) [g]	Liver ([2]; 5 mg/kg i.v. weekly x4, day 23) [g]	Lung ([2]; 5 mg/kg i.v. weekly x4, day 23) [g]	Spleen ([2]; 5 mg/kg i.v. weekly x4, day 23) [g]	CREA [2, 5] [mg/dL]	ALT [2, 6] [U/L]	AST [2, 7] [U/L]	PLT [2, 8]	Body weight [2, 9] [g]	LC3 I conversion to LC3 II (autophagy marker) (MDA-MB-231)	cleaved form of PARP (MDA-MB-231)	average tumor volume (MDA-MB-231 cells [3]; [10]) [mm^3]	breakage of plasmid DNA (nicked or linear forms) (STAT3-DN plasmid)	also measured
N.N.[Cl][Pt][Cl] [CDDP, Cis-diamineplatinum(II) dichloride]	0.35 ± 0.04	1.63 ± 0.22	0.23 ± 0.03	0.17 ± 0.04	0.15 ± 0.10	13.00 ± 3.27	137.00 ± 34.79	877.00 ± 170.99 10^3/µL	25.48 ± 0.98	could not induce apoptotic and autophagy signaling	failed to induce the formation of the cleaved form of PARP	~540.23 ± 133.20	induced single or double breakages of plasmid DNA	DNA content in S phase (MDA-MB-231 cells [1]; MDA-MB-231, 2.5 μM): 26.8%; DNA content in S phase (MDA-MB-231 cells [1]; MDA-MB-231, 5 μM): 32.27%; DNA content in S phase (MDA-MB-231 cells [1]; MDA-MB-231, 10 μM): 39.65%; Kidney [2, 4]: 0.33 ± 0.03 g; Liver [2, 4]: 1.51 ± 0.12 g; Lung [2, 4]: 0.23 ± 0.01 g; Spleen [2, 4]: 0.22 ± 0.07 g; CREA ([2]; 2.11 mg/kg i.v. weekly x4, day 23, reference interval 0.2–0.5): 0.20 ± 0.00 mg/dL; WBC ([2]; 2.11 mg/kg i.v. weekly x4, day 23, reference interval 4–10.9): 6.09 ± 1.32 * 10^3/µL; RBC ([2]; 2.11 mg/kg i.v. weekly x4, day 23, reference interval 7.75–9.61): 7.41 ± 0.51 10^6/µL; ALT ([2]; 2.11 mg/kg i.v. weekly x4, day 23, reference interval 13–39): 14.00 ± 4.90 U/L; AST ([2]; 2.11 mg/kg i.v. weekly x4, day 23, reference interval 63–227): 207.00 ± 101.18 U/L; PLT ([2]; 2.11 mg/kg i.v. weekly x4, day 23, reference interval 853–1951): 946.75 ± 150.28 10^3/µL; Body weight ([2]; 2.11 mg/kg i.v. weekly x4, day of sacrifice (day 23)): 24.06 ± 2.18 g; Heart ([2]; 5 mg/kg i.v. weekly x4, day 23): 0.11 ± 0.02 g; average tumor volume (MDA-MB-231 cells [3]; 2.11 mg/kg i.p. weekly x4, day 28, PBS 1412.72 ± 120.85): around 821.66 ± 133.75 mm^3
FC(F)C(F)(F)COCc1ccnc(-c2cc(COCC(F)(F)C(F)F)ccn2)c1.[Cl][Pt][Cl] [TFBPC]	0.36 ± 0.02	1.58 ± 0.11	0.24 ± 0.02	0.30 ± 0.05	0.10 ± 0.12	14.75 ± 4.50	131.75 ± 31.70	872.75 ± 81.04 10^3/µL	25.72 ± 1.22	LC3 I conversion to LC3 II	formation of the cleaved form of PARP	~413.03 ± 87.50	induced single or double breakages of plasmid DNA	DNA content in sub G1 (MDA-MB-231 cells [1]; MDA-MB-231, 2.5 μM): 14.8%; DNA content in sub G1 (MDA-MB-231 cells [1]; MDA-MB-231, 5 μM): 23.14%; DNA content in sub G1 (MDA-MB-231 cells [1]; MDA-MB-231, 10 μM): 27.15%; Albumin ([2]; 5 mg/kg i.v. weekly x4, day 23, reference interval 3.0–3.9): 2.93 ± 0.40 g/dL; Total protein ([2]; 5 mg/kg i.v. weekly x4, day 23, reference interval 4.5–5.5): 4.6 ± 0.32 g/dL; RBC ([2]; 5 mg/kg i.v. weekly x4, day 23, reference interval 7.75–9.61): 6.97 ± 0.58 10^6/µL; HGB ([2]; 5 mg/kg i.v. weekly x4, day 23, reference interval 12.20–13.90): 11.8 ± 0.56 g/dL; Bax/Bcl-2 ratio (MDA-MB-231): increase in Bax/Bcl-2 ratio; tumor weight (MDA-MB-231 cells [3]; 5 mg/kg i.p. weekly x4, day 28): ~ 0.3 g
